Results published in ChEMBL document CHEMBL5058649, “Data for DCP probe BAY 1816032” (2022).
Activity calls are given as the source filed them. The rule behind the calls is not given here.

Assays:
[1] = target: Tyrosine-protein kinase Fer (Homo sapiens) (UniProt P16591); assay: FER DiscoveRx kinase panel; settings: Compound concentration 1.0 uM
[2] = target: Mitotic checkpoint serine/threonine-protein kinase BUB1 (Homo sapiens, UniProt O43683); assay: Abrogation of histone H2A-Thr120 phosphorylation
Sequence of Mitotic checkpoint serine/threonine-protein kinase BUB1 (O43683 whole entry): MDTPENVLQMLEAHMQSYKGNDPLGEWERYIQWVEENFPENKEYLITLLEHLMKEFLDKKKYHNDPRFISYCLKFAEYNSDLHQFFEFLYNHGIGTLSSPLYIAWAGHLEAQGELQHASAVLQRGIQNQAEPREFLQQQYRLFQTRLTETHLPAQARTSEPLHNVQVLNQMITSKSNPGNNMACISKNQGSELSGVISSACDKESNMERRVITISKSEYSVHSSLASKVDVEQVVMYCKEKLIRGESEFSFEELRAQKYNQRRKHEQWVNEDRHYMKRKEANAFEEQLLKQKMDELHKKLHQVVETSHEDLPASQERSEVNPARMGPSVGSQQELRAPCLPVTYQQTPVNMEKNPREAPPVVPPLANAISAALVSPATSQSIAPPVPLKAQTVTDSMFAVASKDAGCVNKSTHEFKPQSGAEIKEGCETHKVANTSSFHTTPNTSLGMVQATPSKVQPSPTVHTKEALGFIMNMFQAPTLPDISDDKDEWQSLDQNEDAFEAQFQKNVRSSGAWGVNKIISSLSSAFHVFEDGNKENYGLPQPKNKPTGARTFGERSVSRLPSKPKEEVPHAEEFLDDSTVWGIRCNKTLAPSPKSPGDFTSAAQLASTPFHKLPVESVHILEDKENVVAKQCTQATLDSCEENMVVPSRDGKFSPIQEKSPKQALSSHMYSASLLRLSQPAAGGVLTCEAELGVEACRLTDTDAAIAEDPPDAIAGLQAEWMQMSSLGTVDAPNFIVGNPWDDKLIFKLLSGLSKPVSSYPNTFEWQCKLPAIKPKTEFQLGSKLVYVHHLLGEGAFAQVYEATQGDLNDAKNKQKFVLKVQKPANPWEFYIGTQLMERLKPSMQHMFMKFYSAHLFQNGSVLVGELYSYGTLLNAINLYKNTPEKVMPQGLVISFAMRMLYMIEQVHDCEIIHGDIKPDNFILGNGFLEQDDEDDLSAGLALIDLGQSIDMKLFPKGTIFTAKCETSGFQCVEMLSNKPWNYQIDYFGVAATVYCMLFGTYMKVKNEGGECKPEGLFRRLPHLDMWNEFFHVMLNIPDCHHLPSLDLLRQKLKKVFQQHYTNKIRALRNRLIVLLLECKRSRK

[3] = target: Activin receptor type-1B (Homo sapiens) (UniProt P36896); assay: ACVR1B DiscoveRx kinase panel; settings: Compound concentration 1.0 uM
[4] = target: Platelet-derived growth factor receptor alpha (Homo sapiens) (UniProt P16234); assay: PDGFRA DiscoveRx kinase panel; settings: Compound concentration 1.0 uM
[5] = target: Vascular endothelial growth factor receptor 2 (Homo sapiens) (UniProt P35968); assay: VEGFR2 DiscoveRx kinase panel; settings: Compound concentration 1.0 uM
Sequence of Vascular endothelial growth factor receptor 2 (Homo sapiens) (P35968 whole entry): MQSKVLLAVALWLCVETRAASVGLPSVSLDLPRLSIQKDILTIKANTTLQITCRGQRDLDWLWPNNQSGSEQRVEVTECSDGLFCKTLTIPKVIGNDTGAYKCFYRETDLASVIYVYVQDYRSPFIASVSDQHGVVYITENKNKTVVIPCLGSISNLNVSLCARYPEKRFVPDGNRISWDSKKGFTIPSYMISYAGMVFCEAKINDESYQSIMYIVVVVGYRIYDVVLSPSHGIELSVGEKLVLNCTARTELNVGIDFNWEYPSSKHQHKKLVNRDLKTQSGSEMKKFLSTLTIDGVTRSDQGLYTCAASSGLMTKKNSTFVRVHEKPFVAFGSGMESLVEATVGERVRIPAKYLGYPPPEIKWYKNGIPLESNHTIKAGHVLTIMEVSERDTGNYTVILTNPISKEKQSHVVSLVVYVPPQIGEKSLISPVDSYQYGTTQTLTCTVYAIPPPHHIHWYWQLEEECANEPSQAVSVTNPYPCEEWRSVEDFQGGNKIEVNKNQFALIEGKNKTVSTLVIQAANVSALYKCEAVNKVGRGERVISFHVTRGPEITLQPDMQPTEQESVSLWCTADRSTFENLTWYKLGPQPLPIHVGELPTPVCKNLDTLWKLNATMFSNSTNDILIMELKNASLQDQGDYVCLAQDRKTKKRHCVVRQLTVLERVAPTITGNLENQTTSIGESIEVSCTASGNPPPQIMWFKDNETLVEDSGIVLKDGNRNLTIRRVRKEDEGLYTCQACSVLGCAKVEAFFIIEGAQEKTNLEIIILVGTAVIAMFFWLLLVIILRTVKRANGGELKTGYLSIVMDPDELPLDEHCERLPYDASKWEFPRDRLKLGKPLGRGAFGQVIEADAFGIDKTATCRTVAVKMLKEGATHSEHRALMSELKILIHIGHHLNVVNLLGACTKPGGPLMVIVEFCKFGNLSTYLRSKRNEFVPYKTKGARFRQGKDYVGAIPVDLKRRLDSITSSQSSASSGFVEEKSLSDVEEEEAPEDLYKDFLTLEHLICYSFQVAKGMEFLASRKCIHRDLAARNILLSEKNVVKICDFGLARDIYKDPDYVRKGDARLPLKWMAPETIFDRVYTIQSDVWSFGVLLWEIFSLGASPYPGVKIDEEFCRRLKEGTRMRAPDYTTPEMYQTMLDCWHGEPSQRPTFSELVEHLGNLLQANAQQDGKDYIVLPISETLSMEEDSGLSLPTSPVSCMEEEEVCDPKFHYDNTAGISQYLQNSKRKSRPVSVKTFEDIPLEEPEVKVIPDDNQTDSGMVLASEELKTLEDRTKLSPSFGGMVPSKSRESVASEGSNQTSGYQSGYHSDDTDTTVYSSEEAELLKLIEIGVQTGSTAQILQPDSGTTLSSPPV

[6] = target: Serine/threonine-protein kinase 24 (Homo sapiens) (UniProt Q9Y6E0); assay: MST3 DiscoveRx kinase panel; settings: Compound concentration 1.0 uM
[7] = target: Adenosine receptor A1 (Homo sapiens) (UniProt P30542); settings: Compound concentration 10.0 uM
[8] = target: Mitogen-activated protein kinase kinase kinase kinase 2 (Homo sapiens) (UniProt Q12851); assay: MAP4K2 DiscoveRx kinase panel; settings: Compound concentration 1.0 uM
[9] = target: CDK4/Cyclin D3 (Homo sapiens) (UniProt P11802+P30281); assay: CDK4-cyclinD3 DiscoveRx kinase panel; format: protein-complex assay; settings: Compound concentration 1.0 uM
[10] = target: Calcium/calmodulin-dependent protein kinase type 1D (Homo sapiens) (UniProt Q8IU85); assay: CAMK1D DiscoveRx kinase panel; settings: Compound concentration 1.0 uM
[11] = target: Cyclin-dependent kinase 16 (Homo sapiens) (UniProt Q00536); assay: PCTK1 DiscoveRx kinase panel; settings: Compound concentration 1.0 uM
[12] = PHKG2 DiscoveRx kinase panel; settings: Homo sapiens; Compound concentration 1.0 uM
[13] = target: Testis-specific serine/threonine-protein kinase 1 (Homo sapiens) (UniProt Q9BXA7); assay: TSSK1B DiscoveRx kinase panel; settings: Compound concentration 1.0 uM
[14] = target: Aurora kinase B (Homo sapiens) (UniProt Q96GD4); assay: AURKB DiscoveRx kinase panel; settings: Compound concentration 1.0 uM
Sequence of Aurora kinase B (Homo sapiens) (Q96GD4 whole entry): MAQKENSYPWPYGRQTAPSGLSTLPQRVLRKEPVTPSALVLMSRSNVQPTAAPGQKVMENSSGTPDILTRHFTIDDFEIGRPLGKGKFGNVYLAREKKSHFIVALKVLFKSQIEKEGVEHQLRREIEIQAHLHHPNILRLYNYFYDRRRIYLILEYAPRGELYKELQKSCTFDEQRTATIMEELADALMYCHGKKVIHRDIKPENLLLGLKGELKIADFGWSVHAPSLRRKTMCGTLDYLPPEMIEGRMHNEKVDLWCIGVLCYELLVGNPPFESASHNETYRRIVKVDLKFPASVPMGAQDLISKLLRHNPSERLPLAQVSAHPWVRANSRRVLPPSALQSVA

[15] = target: Protein kinase C eta type (Homo sapiens) (UniProt P24723); assay: PRKCH DiscoveRx kinase panel; settings: Compound concentration 1.0 uM
[16] = target: Serine/threonine-protein kinase ICK (Homo sapiens) (UniProt Q9UPZ9); assay: ICK DiscoveRx kinase panel; settings: Compound concentration 1.0 uM
[17] = target: Mitogen-activated protein kinase 4 (Homo sapiens) (UniProt P31152); assay: ERK4 DiscoveRx kinase panel; settings: Compound concentration 1.0 uM
[18] = target: Calcium/calmodulin-dependent protein kinase type II subunit delta (Homo sapiens) (UniProt Q13557); assay: CAMK2D DiscoveRx kinase panel; settings: Compound concentration 1.0 uM
[19] = target: MAP kinase-interacting serine/threonine-protein kinase 2 (Homo sapiens) (UniProt Q9HBH9); assay: MKNK2 DiscoveRx kinase panel; settings: Compound concentration 1.0 uM
[20] = target: Serine/threonine-protein kinase PLK3 (Homo sapiens) (UniProt Q9H4B4); assay: PLK3 DiscoveRx kinase panel; settings: Compound concentration 1.0 uM
[21] = target: Discoidin domain-containing receptor 2 (Homo sapiens) (UniProt Q16832); assay: DDR2 DiscoveRx kinase panel; settings: Compound concentration 1.0 uM
Sequence of Discoidin domain-containing receptor 2 (Homo sapiens) (Q16832 whole entry, the tested form may be a part): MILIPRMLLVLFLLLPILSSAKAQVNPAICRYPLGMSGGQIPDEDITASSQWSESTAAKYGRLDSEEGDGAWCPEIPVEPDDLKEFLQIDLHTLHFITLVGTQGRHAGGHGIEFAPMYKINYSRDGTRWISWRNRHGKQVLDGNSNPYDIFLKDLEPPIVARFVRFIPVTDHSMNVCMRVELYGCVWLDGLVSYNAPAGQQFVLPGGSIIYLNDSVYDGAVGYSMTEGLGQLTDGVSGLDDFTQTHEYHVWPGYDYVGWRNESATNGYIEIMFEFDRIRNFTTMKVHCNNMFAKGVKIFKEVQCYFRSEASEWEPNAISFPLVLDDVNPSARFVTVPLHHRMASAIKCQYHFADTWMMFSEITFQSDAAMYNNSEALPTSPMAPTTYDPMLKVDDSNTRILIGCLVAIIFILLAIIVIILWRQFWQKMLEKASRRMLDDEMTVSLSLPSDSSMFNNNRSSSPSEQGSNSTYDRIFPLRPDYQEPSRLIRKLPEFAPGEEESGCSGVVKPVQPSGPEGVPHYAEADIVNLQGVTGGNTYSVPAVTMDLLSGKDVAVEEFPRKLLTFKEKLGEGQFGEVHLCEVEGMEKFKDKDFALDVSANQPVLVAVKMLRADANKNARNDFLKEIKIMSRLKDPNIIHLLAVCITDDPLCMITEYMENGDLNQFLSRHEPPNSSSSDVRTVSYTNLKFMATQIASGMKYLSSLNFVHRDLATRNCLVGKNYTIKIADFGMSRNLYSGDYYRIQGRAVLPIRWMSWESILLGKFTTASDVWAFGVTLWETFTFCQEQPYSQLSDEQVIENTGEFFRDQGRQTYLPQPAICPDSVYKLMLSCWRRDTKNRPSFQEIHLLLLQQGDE

Rattus norvegicus [22] = species: Rattus norvegicus; assay: Glutamate, NMDA, Polyamine Eurofins-Panlabs radioligand binding assay; format: protein-complex assay; set-up: ligand concentration 2 nM; settings: Compound concentration 10.0 uM
[23] = target: Mitogen-activated protein kinase kinase kinase 13 (Homo sapiens) (UniProt O43283); assay: LZK DiscoveRx kinase panel; settings: Compound concentration 1.0 uM
[24] = target: Ephrin type-A receptor 6 (Homo sapiens) (UniProt Q9UF33); assay: EPHA6 DiscoveRx kinase panel; settings: Compound concentration 1.0 uM
[25] = target: Serine/threonine-protein kinase WNK4 (Homo sapiens) (UniProt Q96J92); assay: WNK4 DiscoveRx kinase panel; settings: Compound concentration 1.0 uM
[26] = target: Mitogen-activated protein kinase kinase kinase kinase 3 (Homo sapiens) (UniProt Q8IVH8); assay: MAP4K3 DiscoveRx kinase panel; settings: Compound concentration 1.0 uM
[27] = target: RAC-beta serine/threonine-protein kinase (Homo sapiens) (UniProt P31751); assay: AKT2 DiscoveRx kinase panel; settings: Compound concentration 1.0 uM
[28] = target: Myosin light chain kinase family member 4 (Homo sapiens) (UniProt Q86YV6); assay: MYLK4 DiscoveRx kinase panel; settings: Compound concentration 1.0 uM
Sequence of Myosin light chain kinase family member 4 (Homo sapiens) (Q86YV6 whole entry): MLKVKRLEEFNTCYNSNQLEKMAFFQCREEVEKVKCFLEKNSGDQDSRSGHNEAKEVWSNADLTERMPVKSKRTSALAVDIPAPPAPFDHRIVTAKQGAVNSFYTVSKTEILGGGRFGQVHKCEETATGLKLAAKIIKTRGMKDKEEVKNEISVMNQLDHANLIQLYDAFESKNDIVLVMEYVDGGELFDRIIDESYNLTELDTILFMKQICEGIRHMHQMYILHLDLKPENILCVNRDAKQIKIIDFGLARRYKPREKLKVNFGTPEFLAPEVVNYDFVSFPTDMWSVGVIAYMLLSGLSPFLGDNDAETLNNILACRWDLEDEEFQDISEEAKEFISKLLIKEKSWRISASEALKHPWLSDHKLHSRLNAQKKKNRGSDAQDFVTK

[29] = target: Estrogen receptor (Homo sapiens) (UniProt P03372); settings: Compound concentration 10.0 uM
MAO-B = MAO-B (Homo sapiens, UniProt P27338); assay: Inhibition of Monoamine Oxidase MAO-B at compound concentration of 10.0 uM in the Eurofins-Panlabs enzyme assay (Eurofins_assay_140120); set-up: substrate with concentration 50 uM Kynuramine, incubation time 60 min, incubation temperature 37 C; settings: human recombinant MAO-B expressed in insect Hi5 cells, probe Kynuramine (50 uM), compound concentration 10 uM
[30] = target: RAC-gamma serine/threonine-protein kinase (Homo sapiens) (UniProt Q9Y243); assay: AKT3 DiscoveRx kinase panel; settings: Compound concentration 1.0 uM
[31] = target: Mitogen-activated protein kinase kinase kinase 6 (Homo sapiens) (UniProt O95382); assay: ASK2 DiscoveRx kinase panel; settings: Compound concentration 1.0 uM
[32] = target: Histamine H1 receptor (Homo sapiens) (UniProt P35367); settings: Compound concentration 10.0 uM
[33] = target: Calcium/calmodulin-dependent protein kinase type II subunit gamma (Homo sapiens) (UniProt Q13555); assay: CAMK2G DiscoveRx kinase panel; settings: Compound concentration 1.0 uM
[34] = target: Calcium/calmodulin-dependent protein kinase type 1G (Homo sapiens) (UniProt Q96NX5); assay: CAMK1G DiscoveRx kinase panel; settings: Compound concentration 1.0 uM
[35] = target: Maternal embryonic leucine zipper kinase (Homo sapiens) (UniProt Q14680); assay: MELK DiscoveRx kinase panel; settings: Compound concentration 1.0 uM
[36] = target: Dual serine/threonine and tyrosine protein kinase (Homo sapiens) (UniProt Q6XUX3); assay: RIPK5 DiscoveRx kinase panel; settings: Compound concentration 1.0 uM
[37] = target: Vascular endothelial growth factor receptor 1 (Homo sapiens) (UniProt P17948); assay: FLT1 DiscoveRx kinase panel; settings: Compound concentration 1.0 uM
Rattus norvegicus [38] = species: Rattus norvegicus; assay: Inhibition of Glutamate, NMDA, Phencyclidine at 10 µM in the Eurofins-Panlabs radioligand binding assay (Eurofins_assay_233000); format: protein-complex assay; settings: Compound concentration 10.0 uM
[39] = target: Mitogen-activated protein kinase kinase kinase 5 (Homo sapiens) (UniProt Q99683); assay: ASK1 DiscoveRx kinase panel; settings: Compound concentration 1.0 uM
[40] = target: Sodium-dependent dopamine transporter (Homo sapiens, UniProt Q01959); assay: GPCRScan assay: inhibition of DAT; set-up: radioligand conc. used [nm] 3.6 – 16.0, parental cells stable HEK
Sequence of Sodium-dependent dopamine transporter (Q01959 whole entry): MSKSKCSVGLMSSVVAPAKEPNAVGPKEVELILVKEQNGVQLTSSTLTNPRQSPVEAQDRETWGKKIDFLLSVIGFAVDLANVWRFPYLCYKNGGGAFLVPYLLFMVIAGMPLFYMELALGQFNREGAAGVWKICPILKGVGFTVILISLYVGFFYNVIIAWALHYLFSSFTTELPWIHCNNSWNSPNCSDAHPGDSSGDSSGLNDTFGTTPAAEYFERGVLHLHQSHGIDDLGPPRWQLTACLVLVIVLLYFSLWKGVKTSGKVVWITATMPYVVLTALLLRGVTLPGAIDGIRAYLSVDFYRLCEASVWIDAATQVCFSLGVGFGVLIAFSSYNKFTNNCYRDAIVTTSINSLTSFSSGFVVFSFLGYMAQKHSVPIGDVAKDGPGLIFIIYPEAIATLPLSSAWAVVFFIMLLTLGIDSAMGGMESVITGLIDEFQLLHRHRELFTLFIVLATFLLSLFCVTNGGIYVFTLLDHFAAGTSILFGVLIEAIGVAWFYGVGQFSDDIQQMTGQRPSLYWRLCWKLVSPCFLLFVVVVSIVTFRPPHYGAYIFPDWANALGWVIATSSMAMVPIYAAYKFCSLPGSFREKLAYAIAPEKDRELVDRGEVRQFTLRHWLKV

[41] = target: Serine/threonine-protein kinase DCLK1 (Homo sapiens) (UniProt O15075); assay: DCAMKL1 DiscoveRx kinase panel; settings: Compound concentration 1.0 uM
[42] = target: Serine/threonine-protein kinase D1 (Homo sapiens) (UniProt Q15139); assay: PRKD1 DiscoveRx kinase panel; settings: Compound concentration 1.0 uM
[43] = target: Dual specificity mitogen-activated protein kinase kinase 4 (Homo sapiens) (UniProt P45985); assay: MEK4 DiscoveRx kinase panel; settings: Compound concentration 1.0 uM
Sequence of Dual specificity mitogen-activated protein kinase kinase 4 (Homo sapiens) (P45985 whole entry): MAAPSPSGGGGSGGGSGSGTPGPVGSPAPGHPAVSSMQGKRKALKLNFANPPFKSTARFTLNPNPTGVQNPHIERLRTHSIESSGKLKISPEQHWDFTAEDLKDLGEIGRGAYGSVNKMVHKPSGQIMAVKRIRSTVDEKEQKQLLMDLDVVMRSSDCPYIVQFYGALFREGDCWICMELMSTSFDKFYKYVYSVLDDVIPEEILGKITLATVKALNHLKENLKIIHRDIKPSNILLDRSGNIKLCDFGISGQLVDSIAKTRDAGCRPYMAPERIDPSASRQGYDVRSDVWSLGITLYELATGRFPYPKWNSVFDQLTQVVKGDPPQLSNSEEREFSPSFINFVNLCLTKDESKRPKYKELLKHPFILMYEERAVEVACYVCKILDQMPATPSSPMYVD

[44] = target: Cyclin-dependent kinase 2 (Homo sapiens) (UniProt P24941); assay: CDK2 DiscoveRx kinase panel; settings: Compound concentration 1.0 uM
[45] = target: Serine/threonine-protein kinase PLK4 (Homo sapiens) (UniProt O00444); assay: PLK4 DiscoveRx kinase panel; settings: Compound concentration 1.0 uM
[46] = target: Phosphatidylinositol 3-kinase C2 domain-containing subunit gamma (Homo sapiens) (UniProt O75747); assay: PIK3C2G DiscoveRx kinase panel; settings: Compound concentration 1.0 uM
[47] = target: cAMP-dependent protein kinase catalytic subunit alpha (Homo sapiens) (UniProt P17612); assay: PKAC-alpha DiscoveRx kinase panel; settings: Compound concentration 1.0 uM
[48] = target: Serine/threonine-protein kinase DCLK2 (Homo sapiens) (UniProt Q8N568); assay: DCAMKL2 DiscoveRx kinase panel; settings: Compound concentration 1.0 uM

What does the source list for `COc1cnccc1Nc1nc(-c2nn(Cc3c(F)cc(OCCO)cc3F)c3ccccc23)ncc1OC`?
residual activity [1]: 100%; IC50 [2]: 0.029 µM (active); residual activity [3]: 72%; residual activity [4]: 100%; residual activity [5]: 100%; residual activity [6]: 100%; inhibition [7]: 9%; residual activity [8]: 100%; residual activity [9]: 100%; residual activity [10]: 83%; residual activity [11]: 100%; residual activity [12]: 98%; residual activity [13]: 100%; residual activity [14]: 100%; residual activity [15]: 89%; residual activity [16]: 84%; residual activity [17]: 96%; residual activity [18]: 100%; residual activity [19]: 100%; residual activity [20]: 100%; residual activity [21]: 93%; inhibition (Rattus norvegicus [22]): 0%; residual activity [23]: 53%; residual activity [24]: 89%; residual activity [25]: 63%; residual activity [26]: 100%; residual activity [27]: 88%; residual activity [28]: 100%; inhibition [29]: 10%; inhibition at 60 min, 10 µM (MAO-B): -15% (not active); residual activity [30]: 100%; residual activity [31]: 82%; inhibition [32]: 12%; residual activity [33]: 100%; residual activity [34]: 99%; residual activity [35]: 84%; residual activity [36]: 100%; residual activity [37]: 89%; inhibition (Rattus norvegicus [38]): 2%; residual activity [39]: 95%; pKi [40]: < 5; Ki ([40]; read-out: Ki): > 10 µM; residual activity [41]: 100%; residual activity [42]: 100%; residual activity [43]: 90%; residual activity [44]: 89%; residual activity [45]: 100%; residual activity [46]: 98%; residual activity [47]: 100%; residual activity [48]: 90%
